Experimental data as given in article PMC7335187, “Super-assembly of ER-phagy receptor Atg40 induces local ER remodeling at contacts with forming autophagosomal membranes” (Nature Communications, 2020).
Where two headings read alike, the source gives them in different places. Where a SMILES comes first, the peptide text is derived from it.

What was measured:
Type in all cases: binding
[1] = target: GABARAP WT (Homo sapiens, UniProt O95166); test: ITC of ER-phagy receptor peptides with GABARAP; details: 25 °C, 0.5 mM peptide in syringe, ± fitting error; for N (site), stoichiometry of binding: GABARAP WT in cell
Excerpt: (§1) All plasmids for expression of recombinant proteins and peptides in bacteria were based on a pGEX6P-1 vector (GE Healthcare). Construction of pGEX6P-ScAtg8 (1-116) K26P and pGEX6P-rat LC3B (1-120) was previously described[35],[47]. All mutations were generated by PCR-based mutagenesis. The genes were amplified by PCR and inserted downstream of the HRV 3C protease recognition site by NEBuilder HiFi DNA Assembly Master Mix (New England Biolabs) except for that encoding human GABARAP (1-116), which was inserted using restriction enzymes for the NdeI and BamHI sites. Plasmids for expression of fusion proteins for crystallization were constructed by inserting the genes encoding Atg40^237–252, human FAM134B^450–468, human SEC62^361–376 with the T367D mutation, and human RTN3^245–264 isoform e into upstream of the sequence encoding Atg8 K26P of pGEX6P-Atg8 (the K26P mutation was introduced for stabilizing Atg8) or upstream of the sequence encoding GABARAP of pGEX6P-GABARAP (with the F3S V4T mutations for enhancing crystallization). For phase-separation experiments, the mCherry and BNDL1[25],[26] sequences were inserted into upstream and downstream of the ATG8 gene in pGEX6P-Atg8 K26P, respectively. pGEX-SNAP-40C was constructed by the removal of the HRV 3C protease recognition site and the insertion of the SNAP sequence from pSNAP-tag(T7) vector (New England Biolabs) with a linker (Gly–Gly–Gly–Ser–Gly–Gly–Gly) and Atg40^194–256 following a linker (Ser–Ala–Ser–Ser) to upstream and downstream of GST in pGEX6P-1 vector, respectively. In the construction of plasmids for peptide production, a Tyr residue was attached to their C termini for enabling the quantification by absorbance at 280 nm (Supplementary Table 4).
(§2) Some of peptides (Supplementary Table 4) and all proteins except Atg40-6His were expressed in E. coli BL21 (DE3). Bacteria were cultured at 37 °C until OD600 became 0.8–1.0 and further cultured at 16 °C with 100 μM IPTG overnight. After centrifugation, the pellets were resuspended with 20 ml PBS with 0.5 mM EDTA and lysed by sonication for 10 min. […]

[2] = target: LC3B WT (Rattus norvegicus, UniProt Q62625); test: ITC of peptides with LC3B; details: 25 °C, 0.5 mM peptide in syringe, LC3B WT in cell 10 times lower, single-site model, ± fitting error
Excerpt: as §1, §2

[3] = target: LC3A WT (Homo sapiens, UniProt Q9H492); test: ITC of peptides with LC3A; details: 25 °C, 0.5 mM peptide in syringe, LC3A WT in cell 10 times lower, single-site model, ± fitting error
Protocol: (§3) Some of peptides (Supplementary Table 4) and all proteins except Atg40-6His were expressed in E. coli BL21 (DE3). Bacteria were cultured at 37 °C until OD600 became 0.8–1.0 and further cultured at 16 °C with 100 μM IPTG overnight. After centrifugation, the pellets were resuspended with 20 ml PBS with 0.5 mM EDTA and lysed by sonication for 10 min. After centrifugation, the supernatants were incubated with GST-accept resin (Nacalai tesque). After three times wash by PBS, the proteins were eluted with glutathione buffer (10 mM glutathione and 50 mM Tris pH 8.0). The buffer of the eluates was exchanged with PBS by a Bio-Scale Mini BioGel P-6 desalting column (Bio-Rad). After incubation with GST-fused HRV 3 C protease at 4 °C overnight, the samples were subjected to a GST-accept resin column to remove excised GST and the protease. RTN3^245–264-GABARAP was purified by cation-exchange chromatography using CM Sepharose FF column (GE Healthcare) with 500 mM MES pH 6.0 as buffer B and 50 mM MES pH 6.0 and 1 M NaCl as buffer C. The samples were further subjected to size-exclusion chromatography with 20 mM HEPES pH 6.8, 150 mM sodium chloride except for mCherry-Atg8-CC^tetramer (20 mM HEPES pH 6.8, 500 mM sodium chloride) using a Superdex 75 10/300 or Superdex 200 26/60 column. As described in Supplementary Table 4, the Atg40^237–252 M245A and Atg40^237–252 D243A D247A peptides were synthesized by Cosmo Bio, and the FAM134B^453–460 and SEC62^361–368 peptides were synthesized by BEX Co., Ltd. The Atg40^234–252 peptide and its variants were prepared using Liberty Blue peptide synthesizer (CEM Corporation). After dissolving these synthesized peptides in 300 μl water with ~10 μl ammonium hydroxide, they were subjected to size-exclusion chromatography with 20 mM HEPES pH 6.8 containing 150 mM sodium chloride using a Superdex 75 10/300 column.
Peptides used in ITC are listed in Supplementary Table 4. ITC experiments were performed using Microcal iTC200 calorimeter (Malvern Panalytical), with stirring at 1000 rpm at 25 °C. […]

[4] = target: LC3C WT (Homo sapiens, UniProt Q9BXW4); test: ITC of peptides with LC3C; details: 25 °C, 0.5 mM peptide in syringe, LC3C WT in cell 10 times lower, single-site model, ± fitting error
Protocol: as §3
Peptides used in ITC are listed in Supplementary Table 4. ITC experiments were performed using Microcal iTC200 calorimeter (Malvern Panalytical), with stirring at 1000 rpm at 25 °C. Atg40, FAM134B, SEC62, and RTN3 peptides were prepared as injection samples from the syringe. Concentrations of FAM134B, SEC62, and RTN3 peptides were 0.5 mM, whereas those of Atg40^234–252 and Atg40^237–252 peptides were 2.0 and 1.8 mM, respectively. In total, 200 μl Atg8, LC3A, LC3B, LC3C, GABARAP, GABARAPL1, and GABARAPL2 with 10 times lower concentration than the syringe samples were filled in the cell. As an exception, 1.8 mM Atg8 was filled in the cell when 1.8 mM Atg40^237–252 D243A D247A was in a syringe. The titration involved 18 injections of 2 μl of the syringe sample at intervals of 120 s into a cell after one injection of 0.4 μl of syringe sample. […]

Sequence of GABARAP WT (O95166 1-116): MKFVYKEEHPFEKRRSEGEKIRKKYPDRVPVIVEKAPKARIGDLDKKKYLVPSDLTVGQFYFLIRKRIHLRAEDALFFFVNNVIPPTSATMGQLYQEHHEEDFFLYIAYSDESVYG
Sequence of LC3C WT (Q9BXW4 whole entry): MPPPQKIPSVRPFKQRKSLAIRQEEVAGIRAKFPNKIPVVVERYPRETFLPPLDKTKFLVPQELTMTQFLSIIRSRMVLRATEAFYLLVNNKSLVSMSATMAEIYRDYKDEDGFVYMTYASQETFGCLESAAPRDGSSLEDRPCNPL

CC[C@H](C)[C@H](NC(=O)[C@H](CCC(N)=O)NC(=O)[C@H](CC(=O)O)NC(=O)[C@H](CC(C)C)NC(=O)[C@H](CCC(=O)O)NC(=O)[C@H](CO)NC(=O)[C@H](CCC(N)=O)NC(=O)[C@H](CC(=O)O)NC(=O)[C@H](C)NC(=O)[C@H](CC(C)C)NC(=O)[C@H](CCC(=O)O)NC(=O)[C@H](Cc1ccccc1)NC(=O)[C@H](CC(=O)O)NC(=O)[C@H](CC(=O)O)NC(=O)CNC(=O)[C@H](CCC(=O)O)NC(=O)[C@H](CCC(=O)O)NC(=O)[C@@H](NC(=O)[C@H](CC(=O)O)NC(=O)[C@@H](NC(=O)[C@H](CC(=O)O)NC(=O)[C@H](CCC(=O)O)NC(=O)[C@H](CCC(=O)O)NC(=O)[C@@H]1CCCN1C(=O)CN)[C@@H](C)O)[C@@H](C)O)C(=O)N[C@@H](CCC(=O)O)C(=O)N[C@@H](CO)C(=O)N[C@@H](CCC(=O)O)C(=O)N[C@@H](CC(C)C)C(=O)N[C@@H](Cc1ccc(O)cc1)C(=O)O [FAM134B444-470 L458A] (H-GPEEDTDTEEGDDFELADQSELDQIESELY-OH)
N (site), stoichiometry of binding [1]: 0.99 ± 0.03
Kd ([1]; 20 mM HEPES pH 6.8, 150 mM NaCl, GABARAP WT in cell 10 times lower, single-site model): 2.06 ± 0.61 µM

CC[C@H](C)[C@H](NC(=O)[C@H](CCC(N)=O)NC(=O)[C@H](CC(=O)O)NC(=O)[C@H](CC(C)C)NC(=O)[C@H](C)NC(=O)[C@H](CO)NC(=O)[C@H](CCC(N)=O)NC(=O)[C@H](CC(=O)O)NC(=O)[C@H](CC(C)C)NC(=O)[C@H](CC(C)C)NC(=O)[C@H](C)NC(=O)[C@H](Cc1ccccc1)NC(=O)[C@H](CC(=O)O)NC(=O)[C@H](CC(=O)O)NC(=O)CNC(=O)[C@H](CCC(=O)O)NC(=O)[C@H](CCC(=O)O)NC(=O)[C@@H](NC(=O)[C@H](CC(=O)O)NC(=O)[C@@H](NC(=O)[C@H](CC(=O)O)NC(=O)[C@H](CCC(=O)O)NC(=O)[C@H](CCC(=O)O)NC(=O)[C@@H]1CCCN1C(=O)CN)[C@@H](C)O)[C@@H](C)O)C(=O)N[C@@H](CCC(=O)O)C(=O)N[C@@H](CO)C(=O)N[C@@H](CCC(=O)O)C(=O)N[C@@H](CC(C)C)C(=O)N[C@@H](Cc1ccc(O)cc1)C(=O)O [FAM134B^444-470 E456A E462A] (H-GPEEDTDTEEGDDFALLDQSALDQIESELY-OH)
Kd [2]: 8.2 ± 2.46 µM

CC[C@H](C)[C@H](NC(=O)[C@@H](NC(=O)[C@H](CCC(=O)O)NC(=O)[C@H](Cc1ccccc1)NC(=O)[C@@H]1CCCN1C(=O)[C@H](CO)NC(=O)[C@H](CCC(=O)O)NC(=O)[C@@H](N)Cc1ccc(O)cc1)C(C)C)C(=O)N[C@H](C(=O)N[C@@H](CC(=O)O)C(=O)O)[C@@H](C)CC [RTN3245-253 WT (∆helix)] (H-YESPFEVIID-OH)
Kd [3]: 21.7 ± 3.62 µM

CC[C@H](C)[C@H](NC(=O)[C@@H](NC(=O)[C@H](CCC(=O)O)NC(=O)[C@H](Cc1ccccc1)NC(=O)[C@@H]1CCCN1C(=O)[C@H](CO)NC(=O)[C@@H](N)CCC(=O)O)C(C)C)C(=O)N[C@H](C(=O)N[C@@H](CC(=O)O)C(=O)N[C@@H](CCCCN)C(=O)N[C@@H](C)C(=O)N[C@@H](C)C(=O)N[C@@H](Cc1ccccc1)C(=O)N[C@@H](CC(=O)O)C(=O)N[C@@H](CCCCN)C(=O)N[C@@H](CCC(=O)O)C(=O)N[C@@H](Cc1ccccc1)C(=O)N[C@@H](CCCCN)C(=O)N[C@@H](CC(=O)O)C(=O)N[C@@H](CO)C(=O)N[C@@H](Cc1ccc(O)cc1)C(=O)O)[C@@H](C)CC [RTN3245-264 WT] (H-ESPFEVIIDKAAFDKEFKDSY-OH)
Kd [4]: not detected

CC[C@H](C)[C@H](NC(=O)[C@H](CCSC)NC(=O)[C@H](CCC(=O)O)NC(=O)[C@H](Cc1ccccc1)NC(=O)[C@H](CC(=O)O)NC(=O)[C@@H](N)CC(N)=O)C(=O)N[C@H](C(=O)N[C@@H](CCCCN)C(=O)N[C@@H](Cc1ccc(O)cc1)C(=O)O)[C@@H](C)O [SEC62^361-368 (Δhelix)] (H-NDFEMITKY-OH)
Kd ([4]; read-out: Kd): 31.9 ± 13.2 µM

CSCC[C@H](NC(=O)[C@H](CCC(=O)O)NC(=O)[C@H](Cc1ccccc1)NC(=O)[C@H](CC(=O)O)NC(=O)[C@H](CC(N)=O)NC(=O)CNC(=O)[C@H](CC(N)=O)NC(=O)CNC(=O)[C@H](CO)NC(=O)[C@H](CO)NC(=O)[C@H](Cc1c[nH]cn1)NC(=O)[C@@H]1CCCN1C(=O)CN)C(=O)N[C@@H](C)C(=O)N[C@H](C(=O)N[C@@H](CCCCN)C(=O)N[C@@H](CCC(=O)O)C(=O)N[C@@H](CCC(=O)O)C(=O)N[C@@H](CC(C)C)C(=O)N[C@@H](CCC(=O)O)C(=O)N[C@@H](CCC(N)=O)C(=O)N[C@@H](CCC(N)=O)C(=O)N[C@H](C(=O)N[C@@H](CC(=O)O)C(=O)N[C@@H](Cc1ccc(O)cc1)C(=O)O)[C@@H](C)O)[C@@H](C)O [SEC62355-376 I366A] (H-GPHSSGNGNDFEMATKEELEQQTDY-OH)
N (site), stoichiometry of binding [1]: 0.87 ± 0.10
